{"source": "patent US20120190752A1", "about": "“EXO-S-MECAMYLAMINE METHOD, USE, AND COMPOUND FOR TREATMENT” (Targacept Inc., priority 2009, published 2012)", "system": "subjects with major depressive disorder (MDD) who were inadequate responders to citalopram", "experiment": "SDS (Sheehan Disability Scale), Phase 2b add-on trial", "format": "in vivo, human", "conditions": "for SDS Difference vs placebo / SDS Adj. Mean change: ITT; for SDS Difference vs placebo: Week 8 to Week 16 LOCF; for SDS Adj. Mean change: change from Week 8 (double-blind baseline) to Week 16 LOCF, add-on to citalopram", "source_text": "The Sheehan Disability Scale (SDS) is widely used not only in psychiatry but also in many other chronic medical illnesses because of its generic design. It measures impairment in functioning. The scale generates 4 scores: a work disability score, a social life disability score, a family life disability score and a total score. A total score is generated through addition of the 3 individual scores (work: social life: family life). The maximum possible score is 30. In more detail, a multi-center double-blind, randomized, placebo-controlled, parallel group, flexible dose titration study of TC-5214 as adjunctive therapy in subjects with major depressive disorder (MDD) who were inadequate responders to citalopram was conducted in centers in the US and India. The study consisted of a screening period, baseline/washout period, open-label phase, double-blind phase, and a follow-up visit. Subject participation in the study could continue for up to 16 weeks of treatment. Following a washout period of up to 28 days for other antidepressants, subjects with MDD and a MADRS total score >/=28 and a Clinical Global Impression-Severity (CGI-S) score >/=4 were enrolled on Day 1 into an open-label citalopram-only phase of the study. This phase lasted 8 weeks, with citalopram (CIT) dose increased from a once-daily dose of 20 mg (Day 1 through Week 4) to 40 mg (Week 4 through Week 8). A total of 579 subjects entered the open-label citalopram phase. At Week 8, subjects who tolerated 40 mg CIT, but whose MADRS score was reduced <50% from baseline and no lower than 17, and CGI-S≧4, were considered inadequate responders. These subjects (n=270) were randomized in a double-blind fashion to receive either placebo or TC-5214-23 as add-on therapy to continued CIT. The double-blind phase of the study also lasted 8 weeks (Week 8 to Week 16). Study drug, TC-5214-23 or placebo, was started at 2 mg daily (1 mg twice per day [BID] dosing), added on to continuing CIT (40 mg PO qd). After 2 weeks of treatment, the dose of TC-5214 could be increased to 4 mg (2 mg BID) or continued unchanged, with up-titration based upon good tolerability and inadequate therapeutic response. After a further 2 weeks, the dose of TC-5214 could be increased again to 8 mg (4 mg BID) if judged appropriate by the investigator, based upon good tolerability and inadequate therapeutic response. At any time during the double-blind phase of the study, placebo or TC-5214-23 could be reduced to the previous dose level following the emergence of unacceptable adverse events (AEs). […] At this follow-up, any signs or symptoms of relapse were evaluated. If a subject was prematurely discontinued from the study between Week 8 and Week 16 for any reason, the investigator was to make every effort to perform all evaluations as per protocol, assuming the subject had reached the end of the double-blind add-on treatment phase. These evaluations were to be made as soon as possible and within 2 weeks of discontinuation. […] There was no meaningful difference in results as a function of age, gender, site, or smoking status. With regard to efficacy endpoints, the following tables present efficacy used in the ITT (Intent-to-Treat) and PP (Per Protocol) populations unless otherwise specific. The primary inference was based upon Week 16 visit using the ITT population. Change from baseline was obtained by subtracting the baseline values from the individual on-treatment values. Change from Week 16 was obtained by subtracting the Week 16 values from the individual follow-up visit (Week 18/19) values. If either the baseline or Week 16 or on-treatment or follow-up value was missing, the change from baseline or Week 16 value was also set to missing. To account for missing data, the last observation carry forward (LOCF) method was used for the ITT and PP populations. […]", "key": {"[1]": {"conditions": "ITT Population, Double Blind Week 16 LOCF, change from Week 8 (double-blind baseline)"}, "[2]": {"conditions": "ITT Population, Double Blind Week 18 LOCF (Follow-up)"}, "[3]": {"conditions": "ITT and PP populations, result in words"}, "[4]": {"conditions": "PP Population, Double Blind Week 16 LOCF, change from Week 8 (double-blind baseline)"}, "[5]": {"conditions": "PP Population, Double Blind Week 18 LOCF (Follow-up)"}}}
{"smiles": "CNC1(C)C2CCC(C2)C1(C)C", "note": "(stereo in doubt) [TC-5214, (S)—N,2,3,3-tetramethylnorbornan-2-amine]", "values": [{"measurement": "SDS change Adjusted Mean", "setting": "[1]", "result": "−9.18"}, {"measurement": "SDS change Mean Difference between TC-5214 and Placebo", "setting": "[1]", "result": 4.60}, {"measurement": "SDS change Adjusted Mean", "setting": "[2]", "result": "−0.46"}, {"measurement": "SDS change Mean Difference between TC-5214 and Placebo", "setting": "[2]", "result": "−0.23"}, {"measurement": "SDS individual items (Work-School; Social Life; Life-Home Responsibilities) change from baseline compared with placebo", "setting": "[3]", "result": "statistically significant decreases (improvements)"}, {"measurement": "SDS score change from baseline compared with placebo", "setting": "[3]", "result": "statistically significant decreases (improvements)"}, {"measurement": "SDS Difference vs placebo", "result": "−4.49 (−5.96, −3.01)"}, {"measurement": "SDS Difference vs placebo", "setting": "listed as TC-5214 + CIT", "result": "−4.49"}, {"measurement": "SDS Adj. Mean change", "result": "−9.18 (0.53)"}, {"measurement": "SDS Adj. Mean change", "setting": "listed as TC-5214 + CIT", "result": "−9.18"}, {"measurement": "SDS change Adjusted Mean", "setting": "[4]", "result": "−10.21"}, {"measurement": "SDS change Mean Difference between TC-5214 and Placebo", "setting": "[4]", "result": 4.86}, {"measurement": "SDS change Adjusted Mean", "setting": "[5]", "result": "−0.44"}, {"measurement": "SDS change Mean Difference between TC-5214 and Placebo", "setting": "[5]", "result": "−0.20"}]}
